# Test results taken from ChEMBL document CHEMBL3992522, “Antileishmanial Activity of Pyrazolopyridine Derivatives and Their Potential as an Adjunct Therapy with Miltefosine” (J Med Chem, 2017).
# Legend:
# [1] = Metabolic stability in mouse liver S9 fractions at 1 mM after 60 mins in presence of NADPH by HPLC method; type: ADME; settings: read-out: Stability
# [2] = tested on: Leishmania donovani; experiment: Antileishmanial activity against Leishmania donovani amastigote forms infected in Balb/c mouse assessed as inhibition of parasitic burden in liver at 50 mg/kg, ip administered for 5 consecutive days measured 1 week post last treatment by Giemsa staining based assay relative to control; type: functional; settings: 168 h
# [3] = tested on: Liver; experiment: Intrinsic clearance in mouse liver S9 fractions assessed per mg protein at 1 mM in presence of NADPH by HPLC method; type: ADME; settings: s9, 1000 µM
# [4] = tested on: Leishmania donovani; experiment: Induction of apoptosis in Leishmania donovani MHOM/IN/80/DD8 promastigote forms assessed as late apoptotic cells at IC50 after 48 hrs by Annexin V-FITC/propidium iodide staining based flow cytometry (reference value: 0.86%); type: functional
smiles,measurement,setting,value
COc1ccc(C2C3=C(CCC3=O)Nc3c2c(-c2c[nH]c4ccccc24)nn3-c2ccc(Cl)c(Cl)c2)cc1OC (centres undefined),"remaining at 1 h, 1000 µM",[1],45%
same,inhibition in vivo at 50 mg/kg,[2],> 93%
same,CLH,[3],27.47 µL/min
same,Activity,[4],21%
